From BindingDB's records for doi:10.1021/bi1013479 (University of California Irvine, 2010)

Experiments:
Experiment in all cases: Inhibitory Assay
[1] = molecular target: T1, Nitric oxide synthase, endothelial (Homo sapiens, UniProt P29474)
T1 sequence (P29474 whole entry): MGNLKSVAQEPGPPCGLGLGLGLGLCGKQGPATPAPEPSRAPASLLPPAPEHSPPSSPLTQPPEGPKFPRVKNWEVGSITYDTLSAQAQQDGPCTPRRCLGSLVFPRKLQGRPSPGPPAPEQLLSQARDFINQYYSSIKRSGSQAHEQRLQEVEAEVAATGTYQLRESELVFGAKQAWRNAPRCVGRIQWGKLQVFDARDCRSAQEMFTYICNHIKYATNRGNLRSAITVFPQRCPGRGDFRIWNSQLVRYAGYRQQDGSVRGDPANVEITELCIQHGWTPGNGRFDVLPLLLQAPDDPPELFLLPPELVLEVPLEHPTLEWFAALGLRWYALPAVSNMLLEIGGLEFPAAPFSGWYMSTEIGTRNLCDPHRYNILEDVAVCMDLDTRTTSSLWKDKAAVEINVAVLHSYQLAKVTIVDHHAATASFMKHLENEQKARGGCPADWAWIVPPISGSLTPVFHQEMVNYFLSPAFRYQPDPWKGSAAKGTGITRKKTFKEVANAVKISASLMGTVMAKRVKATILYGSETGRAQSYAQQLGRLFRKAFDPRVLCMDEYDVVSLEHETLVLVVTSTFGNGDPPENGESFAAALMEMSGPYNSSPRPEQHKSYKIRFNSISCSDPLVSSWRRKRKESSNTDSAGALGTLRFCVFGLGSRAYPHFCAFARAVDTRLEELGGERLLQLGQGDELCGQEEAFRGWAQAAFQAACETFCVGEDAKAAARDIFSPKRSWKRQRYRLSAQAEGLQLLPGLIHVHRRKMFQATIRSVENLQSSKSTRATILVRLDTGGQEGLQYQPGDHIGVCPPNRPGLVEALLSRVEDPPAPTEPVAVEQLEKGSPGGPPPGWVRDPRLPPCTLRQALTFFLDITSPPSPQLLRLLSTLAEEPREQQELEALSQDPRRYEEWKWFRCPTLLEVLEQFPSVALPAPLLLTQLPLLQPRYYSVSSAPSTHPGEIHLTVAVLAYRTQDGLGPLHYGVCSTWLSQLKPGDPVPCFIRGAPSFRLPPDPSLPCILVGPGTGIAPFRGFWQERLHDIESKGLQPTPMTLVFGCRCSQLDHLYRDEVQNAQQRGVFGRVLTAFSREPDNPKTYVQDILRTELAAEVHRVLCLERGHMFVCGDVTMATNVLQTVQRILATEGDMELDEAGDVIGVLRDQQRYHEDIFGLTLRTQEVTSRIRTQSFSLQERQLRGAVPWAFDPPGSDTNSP
Text: (§1) Inhibition assay using nitric oxide synthases.

[2] = molecular target: Nitric oxide synthase, inducible (Homo sapiens, UniProt P35228)
Sequence of Nitric oxide synthase, inducible (P35228 whole entry): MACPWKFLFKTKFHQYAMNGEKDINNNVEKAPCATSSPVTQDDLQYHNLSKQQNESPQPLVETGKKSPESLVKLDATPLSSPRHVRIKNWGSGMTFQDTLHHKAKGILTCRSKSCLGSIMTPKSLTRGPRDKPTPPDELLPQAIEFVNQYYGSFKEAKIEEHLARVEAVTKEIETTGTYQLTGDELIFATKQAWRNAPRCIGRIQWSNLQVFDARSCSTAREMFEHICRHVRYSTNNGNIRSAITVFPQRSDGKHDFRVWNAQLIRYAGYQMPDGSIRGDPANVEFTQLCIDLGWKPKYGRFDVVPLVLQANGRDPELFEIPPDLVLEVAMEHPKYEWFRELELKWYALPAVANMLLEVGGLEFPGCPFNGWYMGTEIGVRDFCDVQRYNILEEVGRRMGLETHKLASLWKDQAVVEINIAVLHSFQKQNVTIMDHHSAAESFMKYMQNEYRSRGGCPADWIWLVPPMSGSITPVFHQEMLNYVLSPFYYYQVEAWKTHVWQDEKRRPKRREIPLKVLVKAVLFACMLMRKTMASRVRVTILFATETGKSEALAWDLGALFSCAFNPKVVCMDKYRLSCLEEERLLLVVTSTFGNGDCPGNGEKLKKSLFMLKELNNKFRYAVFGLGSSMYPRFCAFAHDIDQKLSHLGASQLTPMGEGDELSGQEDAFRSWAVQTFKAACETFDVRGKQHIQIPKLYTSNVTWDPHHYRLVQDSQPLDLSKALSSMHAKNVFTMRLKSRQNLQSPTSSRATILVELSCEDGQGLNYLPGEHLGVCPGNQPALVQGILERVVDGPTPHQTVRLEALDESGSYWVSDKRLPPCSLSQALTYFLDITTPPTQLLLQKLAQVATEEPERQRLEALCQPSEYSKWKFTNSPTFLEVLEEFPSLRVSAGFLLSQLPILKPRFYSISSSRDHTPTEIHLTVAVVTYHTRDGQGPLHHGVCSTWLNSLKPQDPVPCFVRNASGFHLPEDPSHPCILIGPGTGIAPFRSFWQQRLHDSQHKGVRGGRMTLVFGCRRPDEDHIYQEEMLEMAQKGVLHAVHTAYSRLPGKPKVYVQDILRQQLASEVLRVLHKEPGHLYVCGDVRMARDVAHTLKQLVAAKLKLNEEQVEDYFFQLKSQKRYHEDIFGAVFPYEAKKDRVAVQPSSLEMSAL
Text: as §1

[3] = molecular target: Nitric oxide synthase, brain (Homo sapiens, UniProt P29475)
Sequence of Nitric oxide synthase, brain (P29475 whole entry): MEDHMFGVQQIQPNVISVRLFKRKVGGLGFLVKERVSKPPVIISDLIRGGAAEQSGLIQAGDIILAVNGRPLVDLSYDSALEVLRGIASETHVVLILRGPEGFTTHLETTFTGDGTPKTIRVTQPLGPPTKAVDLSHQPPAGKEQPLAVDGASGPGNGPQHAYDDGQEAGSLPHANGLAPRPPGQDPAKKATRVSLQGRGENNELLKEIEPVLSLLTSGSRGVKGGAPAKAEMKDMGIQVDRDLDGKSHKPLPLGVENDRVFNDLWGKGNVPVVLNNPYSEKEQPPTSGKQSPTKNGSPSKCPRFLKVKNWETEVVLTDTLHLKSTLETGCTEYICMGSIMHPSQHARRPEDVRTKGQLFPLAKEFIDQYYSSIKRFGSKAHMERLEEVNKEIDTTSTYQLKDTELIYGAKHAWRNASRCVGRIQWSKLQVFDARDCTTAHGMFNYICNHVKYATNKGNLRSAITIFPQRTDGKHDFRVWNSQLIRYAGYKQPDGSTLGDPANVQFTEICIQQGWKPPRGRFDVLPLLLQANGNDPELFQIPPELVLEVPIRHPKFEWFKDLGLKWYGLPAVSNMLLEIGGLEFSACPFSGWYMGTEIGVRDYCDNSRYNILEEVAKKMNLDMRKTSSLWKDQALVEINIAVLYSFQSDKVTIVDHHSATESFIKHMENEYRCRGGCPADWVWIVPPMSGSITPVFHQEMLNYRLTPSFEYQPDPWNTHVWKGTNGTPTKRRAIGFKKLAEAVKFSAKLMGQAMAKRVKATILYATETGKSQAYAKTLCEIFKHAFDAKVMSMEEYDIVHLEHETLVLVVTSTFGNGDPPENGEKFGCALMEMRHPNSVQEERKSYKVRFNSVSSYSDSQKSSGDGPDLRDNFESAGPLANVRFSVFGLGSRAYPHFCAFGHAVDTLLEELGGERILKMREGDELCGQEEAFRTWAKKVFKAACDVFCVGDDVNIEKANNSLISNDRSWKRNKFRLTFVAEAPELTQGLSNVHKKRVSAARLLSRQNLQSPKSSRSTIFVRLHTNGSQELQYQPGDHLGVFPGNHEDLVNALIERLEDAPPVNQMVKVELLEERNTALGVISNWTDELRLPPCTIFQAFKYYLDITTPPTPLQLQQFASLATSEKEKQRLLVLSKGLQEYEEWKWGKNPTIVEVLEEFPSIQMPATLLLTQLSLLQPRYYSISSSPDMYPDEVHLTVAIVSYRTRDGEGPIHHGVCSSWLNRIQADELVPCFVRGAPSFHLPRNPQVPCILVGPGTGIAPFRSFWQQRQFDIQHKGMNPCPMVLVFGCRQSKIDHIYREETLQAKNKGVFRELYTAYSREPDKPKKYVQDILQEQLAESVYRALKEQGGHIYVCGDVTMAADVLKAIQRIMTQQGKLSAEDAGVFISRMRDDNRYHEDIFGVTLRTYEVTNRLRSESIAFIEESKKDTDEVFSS
Text: as §1

Ki [1] | Ki [2] | Ki [3] | SMILES
4.2 µM | 2.73 µM | – | Cc1cc(N)nc(CCc2cccc(CCc3cc(C)cc(N)n3)c2)c1 [NOS Inhibitor, 3h]
20 µM | 12.6 µM | 0.195 µM | Cc1cc(N)nc(CCc2cccc(CCc3cc(C)nc(N)c3)n2)c1
4.95 µM | 3.4 µM | 0.085 µM | Cc1cc(N)nc(CCc2cc(N)cc(CCc3cc(C)cc(N)n3)c2)c1 [6,6'-[(5-aminobenzene-1,3-diyl)diethane-2,1-diyl]bis(4-methylpyridin-2-amine)]
16.1 µM | 1.91 µM | 0.103 µM | Cc1cc(N)nc(CCc2cncc(CCc3cc(C)nc(N)c3)c2)c1 [6-(2-{5-[2-(2-amino-6-methylpyridin-4-yl)ethyl]pyridin-3-yl}ethyl)-4-methylpyridin-2-amine]
